Test results published in the supplement of paper PMC10307832.

How the values were obtained:
Experiment in all cases: relative viability (nuclei count vs DMSO), 5 days (fraction); higher = more cells survive
[1] = compound: CC1=CC=C(C=C1)C(=O)CN2C3=C(CCCC3)SC2=N [Pifithrin_alpha] + CC1(C)CCC(c2ccc(Cl)cc2)=C(CN2CCN(c3ccc(C(=O)NS(=O)(=O)c4ccc(N[C@H](CCN5CCOCC5)CSc5ccccc5)c(S(=O)(=O)C(F)(F)F)c4)cc3)CC2)C1 [Navitoclax] (partner 0.5 µM)
Method in brief: (§1)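 Lung cancer cell lines in 1536-well plates got either a single drug or a fixed anchor-drug dose together with five library-drug doses (not always all listed) in √10 steps, by pin tool, on the day after seeding. Nuclei were counted after 5 days, and relative viability is the treated-to-vehicle ratio of nuclei counts. Values are medians of duplicate plates.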

Axitinib + Luminespib = compound: CNC(=O)c1ccccc1Sc1ccc2c(/C=C/c3ccccn3)n[nH]c2c1 [Axitinib] + CCNC(=O)c1noc(-c2cc(C(C)C)c(O)cc2O)c1-c1ccc(CN2CCOCC2)cc1 [Luminespib] (partner 0.01 µM)
Method in brief: as §1

Axitinib + Pictilisib = compound: CNC(=O)c1ccccc1Sc1ccc2c(/C=C/c3ccccn3)n[nH]c2c1 [Axitinib] + CS(=O)(=O)N1CCN(Cc2cc3nc(-c4cccc5[nH]ncc45)nc(N4CCOCC4)c3s2)CC1 [Pictilisib] (partner 1 µM)
Method in brief: as §1

Cell Line | relative viability ([1]; first compound 1 µM) | relative viability ([1]; first compound 3.162 µM) | relative viability ([1]; first compound 10 µM) | relative viability ([1]; first compound 31.62 µM) | relative viability ([1]; first compound 100 µM) | relative viability (Axitinib + Luminespib; first compound 0.005 µM) | relative viability (Axitinib + Luminespib; first compound 0.01581 µM) | relative viability (Axitinib + Luminespib; first compound 0.05 µM) | relative viability (Axitinib + Luminespib; first compound 0.1581 µM) | relative viability (Axitinib + Luminespib; first compound 0.5 µM) | relative viability (Axitinib + Pictilisib; first compound 0.005 µM) | relative viability (Axitinib + Pictilisib; first compound 0.01581 µM) | relative viability (Axitinib + Pictilisib; first compound 0.05 µM) | relative viability (Axitinib + Pictilisib; first compound 0.1581 µM) | relative viability (Axitinib + Pictilisib; first compound 0.5 µM)
201T | 1.18 | 1.19 | 1.15 | 1.04 | 1.05 | 1.04 | 1.04 | 1.09 | 0.989 | 1.04 | 0.671 | 0.69 | 0.662 | 0.675 | 0.675
A549 | 1.37 | 1.26 | 1.14 | 0.985 | 1.29 | – | – | – | – | – | 0.482 | 0.587 | 0.48 | 0.461 | 0.601
A-427 | 0.803 | 0.843 | 0.79 | 0.773 | 0.933 | 0.998 | 1.03 | 1.03 | 0.926 | 0.919 | 0.672 | 0.496 | 0.77 | 0.705 | 0.679
ABC-1 | – | – | – | – | – | 0.777 | 0.727 | 0.444 | – | 0.552 | 0.716 | 0.773 | 0.812 | 0.658 | 0.834
BEN | 0.0519 | 0.0641 | 0.0597 | 0.0612 | 0.0656 | 0.486 | 0.309 | 0.509 | 0.372 | 0.226 | 0.547 | 0.536 | 0.533 | 0.516 | 0.515
CAL-12T | – | 1.22 | 1.16 | 0.686 | 1.15 | 0.96 | 0.302 | 0.216 | 0.672 | 0.364 | 0.385 | 0.393 | 0.513 | 0.492 | 0.396
COR-L23 | 1.09 | 1.09 | 0.974 | – | 1.19 | 0.667 | 0.614 | 0.744 | 0.631 | 0.749 | 0.838 | 0.779 | 0.832 | 0.731 | 0.944
COR-L 105 | 0.65 | 0.663 | 0.722 | 0.63 | 0.626 | 0.628 | 0.922 | 0.669 | 0.64 | 0.81 | 0.42 | 0.411 | 0.379 | 0.382 | 0.385
Calu-6 | 0.976 | 0.741 | 0.781 | 0.508 | 0.704 | – | – | – | – | – | 0.861 | 0.946 | 1 | 0.942 | 1.17
ChaGo-K-1 | 0.873 | 0.999 | 0.888 | 0.734 | 0.891 | 0.591 | 0.703 | 0.44 | 0.495 | 0.533 | 0.725 | 0.562 | 0.878 | 0.643 | 0.541
EBC-1 | 0.386 | 0.318 | 0.29 | 0.221 | 0.224 | – | – | – | – | – | 0.492 | 0.485 | 0.459 | 0.41 | 0.567
EKVX | 0.936 | 0.886 | 0.738 | 0.645 | 0.595 | 0.879 | 0.86 | 0.828 | 0.878 | 0.965 | 0.441 | 0.429 | 0.481 | 0.48 | 0.399
EMC-BAC-2 | 1.22 | 1.29 | 1.17 | 0.933 | 1.31 | 1.27 | 1.12 | 1.19 | 1.21 | 1.25 | 0.569 | 0.533 | 0.534 | 0.555 | 0.529
EPLC-272H | – | 0.978 | 1.02 | 0.894 | 1.25 | 0.332 | 0.376 | 0.338 | 0.251 | 0.314 | 0.317 | 0.289 | 0.391 | 0.272 | 0.313
H3255 | 0.376 | 0.428 | 0.444 | 0.434 | 0.497 | 0.922 | 0.609 | 0.935 | 0.83 | 0.828 | 0.485 | 0.288 | 0.432 | 0.492 | 0.435
HARA | 1.17 | 1.22 | 1.17 | 0.767 | 0.945 | 0.791 | 0.823 | 0.901 | 0.721 | 0.639 | 0.324 | 0.401 | 0.545 | 0.364 | 0.281
HCC-15 | 0.681 | 0.697 | 0.524 | 0.441 | 0.525 | 0.306 | 0.325 | 0.307 | 0.301 | 0.338 | 0.696 | 0.828 | 0.761 | 0.736 | 0.737
HCC-44 | 0.8 | 0.899 | 0.795 | 0.701 | 0.801 | 1.07 | 1.07 | 0.484 | 1.04 | 1.35 | 0.56 | 0.734 | 0.682 | 0.695 | 0.546
HCC-78 | 0.752 | 0.768 | 0.623 | – | 0.783 | – | – | – | – | – | 0.207 | 0.257 | 0.238 | 0.229 | 0.218
HCC-366 | 1.12 | 1.11 | 0.886 | – | 0.925 | – | – | – | – | – | 0.116 | 0.171 | 0.146 | 0.153 | 0.101
HCC-827 | 1.02 | 0.917 | 0.849 | 0.672 | 0.694 | 0.599 | 0.514 | 0.325 | 0.728 | 0.459 | 0.911 | 1.04 | 0.947 | 1.08 | 0.889
HOP-62 | 0.908 | 1.09 | 1.06 | 0.751 | 1.07 | 0.934 | 0.798 | 0.908 | 0.885 | 0.85 | 0.679 | 0.861 | 0.735 | 0.792 | 0.583
IA-LM | 0.747 | 0.339 | 0.259 | 0.275 | 0.262 | – | – | – | – | – | 0.442 | 0.307 | 0.331 | 0.396 | 0.4
LC-2-ad | 0.462 | 0.323 | 0.408 | 0.249 | 0.32 | 1.01 | 1.13 | 1.04 | 0.897 | 0.956 | 0.505 | 0.516 | 0.458 | 0.54 | 0.469
